As a reminder, the inhibition is the share of the control response that was lost under treatment.

The subject of test [1] is human breast cancer cells MX-1. Kind of test: Effect on the growth of cultured human breast cancer cells MX-1. Type of test: cell-based. Particulars: 100 μg/ml, 48 hours, read-out: Growth inhibition rate. The procedure: (§1) Human breast cancer cells MX-1 and mouse leukemia cells L1210 were respectively suspended at a cell concentration of 10^5 /ml in Eagle's medium containing 10% calf serum and test substances. The cells were cultured at 37° C. under 5% CO2 for 48 hours. Then the number of viable cells was counted after staining with Tripan Blue. [formula]

In test [2] the test system is mouse leukemia cells L1210. The test can be described thus: Effect on the growth of cultured mouse leukemia cells L1210. It is filed as cell-based. To be noted: 100 μg/ml, 48 hours, read-out: Growth inhibition rate. The protocol: as §1
In a further test the test system is leukemia cells P388. The test can be described thus: Effect on leukemia cells P388 bearing mice. It is filed as in vivo, mouse (BDF1). Particulars: 0.5 mg/kg; control 100 ± 5. The procedure: 10^5 of leukemia cells P388 were transplanted intraperitoneally to a group of 5 BDF1 male mice. The human leucocyte pepsin-like enzyme was injected intravenously into the mice twice a day beginning on the next day until the animals died. The average life span was calculated and expressed as a percentage of control. [formula]

Consider `CO[C@@]12[C@H](COC(N)=O)C3=C(C(=O)C(C)=C(N)C3=O)N1C[C@@H]1N[C@@H]12` [Mitomycin C], for which the inhibition at 100 µg/mL is 48% in test [1] and 61% in test [2]. Further, the “Average life span (percentage of control)” value in the test on leukemia cells P388 was determined as 135 ± 16%.

These data come from patent publication US4591504A, “Human leucocyte pepsin-like enzyme as a therapeutic agent for treating allergic disorders and immune complex diseases” (Mochida Pharmaceutical Co., Ltd., priority 1982, dated 1986).
